Laboratory results: patent US20210317092A1 (BAYER PHARMA AKTIENGESELLSCHAFT, priority 2016, published 2021)
Where two headings read alike, the source gives them in different places.

Biological target: T1, human Bradykinin B1 receptor (Homo sapiens, UniProt P46663)
T1 construct: host or cells: CHO-K1
T1 sequence (P46663 1-353): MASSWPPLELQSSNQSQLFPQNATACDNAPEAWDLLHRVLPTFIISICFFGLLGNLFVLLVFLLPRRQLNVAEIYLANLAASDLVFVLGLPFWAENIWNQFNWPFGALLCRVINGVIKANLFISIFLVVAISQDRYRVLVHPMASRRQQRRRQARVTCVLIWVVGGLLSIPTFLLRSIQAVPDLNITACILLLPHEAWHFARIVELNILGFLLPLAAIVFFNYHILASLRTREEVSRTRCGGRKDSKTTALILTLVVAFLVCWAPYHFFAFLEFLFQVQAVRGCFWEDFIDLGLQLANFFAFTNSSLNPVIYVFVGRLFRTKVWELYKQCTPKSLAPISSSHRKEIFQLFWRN
Test: Calcium flux Assay (FLIPR) with recombinant CHO-K1 cells expressing human Bradykinin B1 receptor, in presence (hB1 IC50) or absence (hB1 free IC50) of 0.1% BSA
Type: cell-based
Experimental: The potency to inhibit the Bradykinin B1 receptor was determined for the compounds of this invention in a cell-based fluorescent calcium-mobilisation assay. The assay measures the ability of test compounds to inhibit Bradykinin B1 receptor agonist-induced increase of intracellular free Ca^2+ in the cell line expressing Bradykinin B1 receptor. […] The change of the intracellular Ca^2+ concentration is monitored with a fluorescent plate reader FLIPR TETRA® (Molecular Devices).
Calcium flux Assays (FLIPR) with cells expressing human Bradykinin B1 receptor (hB1)
CHO-K1 cell line expressing human Bradykinin B1 receptor was purchased from Euroscreen (Gosselies, Belgium, with reference name hB1-D1). The cells were grown in Nutrient Mixture Ham's F12 (Sigma) containing 10% Foetal bovine serum (Sigma) and 400 μg/mL G418 (Sigma), 5 μg/mL puromycim (Sigma). […]
Cells were seeded in a volume of 50 μL in medium without antibiotics and incubated overnight in a humidified atmosphere with 5% CO2 at 37° C. […] The calcium indicator loaded cells were incubated at 37° C. for 2 hrs. Extracellular dye was then removed and each well was filled with 45 μL of assay buffer. Cell plates were kept in dark until used. Compound examples were assayed at 8 concentrations in triplicate. Serial 10-fold dilutions in 100% DMSO were made at a 100-times higher concentration than the final concentration, and then diluted 1:10 in assay buffer. 5 μL of each diluted compound was added to the well of cell plates (yielding final concentration with 1% DMSO), and incubated for 30 min at 28° C. before the addition of Bradykinin B1 receptor agonist on the FLIPR instrument.
A peptide antagonist Lys-(Des-Arg-Leu)-Bradykinin (Bachem, Brackley) at 20 µM was used to determine the full inhibition as control.
Peak fluorescence was used to determine the response to agonist obtained at each concentration of compound examples by the following equation:
% Response=100*(RFU(compound)−RFU(control))/(RFU(DMSO)−RFU(control)) • RFU means relative fluorescence units. • Control means full inhibition by the peptide antagonist Lys-(Des-Arg-Leu)-Bradykinin at 20 µM.
The response values were plotted against the logarithm of the compound concentrations. The compound examples were tested in triplicates per plate and mean values were plotted in Excel XLfit to determine IC50 values, percentage of maximal inhibition and the Hill slopes.

[1] = in presence of 0.1% BSA, read-out: hB1 IC50
[2] = in absence of 0.1% BSA, read-out: hB1 free IC50

Compound	IC50 [1]	IC50 [2]
CCOc1ccc(-c2ccc(NC(=O)C(C)(C)c3cccc(Cl)c3)cc2-c2nnn[nH]2)cn1 [Example 67, 2-(3-chlorophenyl)-N-[4-(6-ethoxypyridin-3-yl)-3-(1H-tetrazol-5-yl)phenyl]-2-methyl-propanamide]	394 nM	–
CCOc1ccc(-c2ccc(NC(=O)C3(c4ccc(Cl)cc4F)CC3)cc2-c2nnn[nH]2)cn1 [Example 75, 1-(4-chloro-2-fluorophenyl)-N-[4-(6-ethoxypyridin-3-yl)-3-(1H-tetrazol-5-yl)phenyl] cyclopropane-carboxamide]	22.7 nM	14.1 nM
CCOc1ccc(-c2ccc(NC(=O)C3(c4ccc(Cl)cn4)CC3)cc2-c2nnn[nH]2)cn1 [Example 85, 1-(5-chloropyridin-2-yl)-N-[4-(6-ethoxypyridin-3-yl)-3-(1H-tetrazol-5-yl)phenyl] cyclopropane-carboxamide]	63.1 nM	–
CCOc1ccc(-c2ccc(NC(=O)C3(C)CC3)cc2-c2nnn[nH]2)cn1 [Example 88, N-[4-(6-ethoxypyridin-3-yl)-3-(1H-tetrazol-5-yl)phenyl]-1-methyl-cyclopropane-carboxamide]	111 nM	–
CCOc1ccc(-c2ccc(NC(=O)C3(CC(C)C)CC3)cc2-c2nnn[nH]2)cn1 [Example 89, N-[4-(6-ethoxypyridin-3-yl)-3-(1H-tetrazol-5-yl)phenyl]-1-isobuty-l cyclopropane-carboxamide]	615 nM	541 nM
CCOc1ccc(-c2ccc(NC(=O)C3(C(C)C)CC3)cc2-c2nnn[nH]2)cn1 [Example 90, N-[4-(6-ethoxypyridin-3-yl)-3-(1H-tetrazol-5-yl)phenyl]-1-isopropyl-cyclopropane-carboxamide]	1560 nM	–
CCOc1ccc(-c2ccc(NC(=O)C3(c4cccc(F)c4Cl)CC3)cc2-c2nnn[nH]2)cn1 [Example 106, 1-(2-chloro-3-fluorophenyl)-N-[4-(6-ethoxypyridin-3-yl)-3-(1H-tetrazol-5-yl)phenyl] cyclopropane-carboxamide]	56 nM	–
CCOc1ccc(-c2ccc(NC(=O)C3(c4cccc(Cl)n4)CC3)cc2-c2nnn[nH]2)cn1 [Example 107, 1-(6-chloropyridin-2-yl)-N-[4-(6-ethoxypyridin-3-yl)-3-(1H-tetrazol-5-yl)phenyl] cyclopropane-carboxamide]	134 nM	177 nM
CCOc1ccc(-c2ccc(NC(=O)C3(C4CCC(C)(C)CC4)CC3)cc2-c2nnn[nH]2)cn1 [Example 109, 1-(4,4-dimethylcyclo-hexyl)-N-[4-(6-ethoxypyridin-3-yl)-3-(1H-tetrazol-5-yl)phenyl] cyclopropane-carboxamide]	12.2 nM	–
COc1ccc(-c2ccc(NC(=O)C3(c4ccc(C)cc4)CC3)cc2-c2nnn[nH]2)cc1 [Example 115, N-[4′-methoxy-2-(1H-tetrazol-5-yl)biphenyl-4-yl]-1-(4-methylphenyl) cyclopropane-carboxamide]	169 nM	–
COc1ccc(-c2ccc(NC(=O)C3(c4cccc(Cl)c4)CC3)cc2-c2nnn[nH]2)cc1C [Example 116, 1-(3-chlorophenyl)-N-[4′-methoxy-3′-methyl-2-(1H-tetrazol-5-yl)biphenyl-4-yl]cyclopropane carboxamide]	177 nM	–
COc1ccc(-c2ccc(NC(=O)C3(c4cccc(Cl)c4)CC3)cc2-c2nnn[nH]2)cc1Cl [Example 117, N-[3′-chloro-4′-methoxy-2-(1H-tetrazol-5-yl)biphenyl-4-yl]-1-(3-chlorophenyl) cyclopropane-carboxamide]	448 nM	–
COc1ccc(-c2ccc(NC(=O)C3(c4cccc(Cl)c4)CC3)cc2-c2nnn[nH]2)c(C)c1 [Example 118, 1-(3-chlorophenyl)-N-[4′-methoxy-2′-methyl-2-(1H-tetrazol-5-yl)biphenyl-4-yl]cyclopropane carboxamide]	1820 nM	–
COCc1ccc(-c2ccc(NC(=O)C3(c4cccc(Cl)c4)CC3)cc2-c2nnn[nH]2)cc1C [Example 124, 1-(3-chlorophenyl)-N-[4′-(methoxymethyl)-3′-methyl-2-(1H-tetrazol-5-yl)biphenyl-4-yl]cyclopropane carboxamide]	38.3 nM	–
O=C(Nc1ccc(-c2cc(F)cc(C(F)(F)F)c2)c(-c2nnn[nH]2)c1)C1(c2ccc(C(F)(F)F)cc2F)CC1 [Example 129, N-[3′-fluoro-2-(1H-tetrazol-5-yl)-5′-(trifluoromethyl)biphenyl-4-yl]-1-[2-fluoro-4-(trifluoromethyl)phenyl] cyclopropane-carboxamide]	–	77.2 nM
O=C(Nc1ccc(-c2cc(F)cc(C(F)(F)F)c2)c(-c2nnn[nH]2)c1)C1(c2cccc(Cl)c2)CC1 [Example 130, 1-(3-chlorophenyl)-N-[3′-fluoro-2-(1H-tetrazol-5-yl)-5′-(trifluoromethyl)biphenyl-4-yl]cyclopropane carboxamide]	–	362 nM

Now from value to molecule:

IC50 [1]	IC50 [2]	Compound
1410 nM	–	CCOc1ccc(-c2ccc(NC(=O)C3(c4cccc(Cl)c4)CCC3)cc2-c2nnn[nH]2)cn1 [Example 68, 1-(3-chlorophenyl)-N-[4-(6-ethoxypyridin-3-yl)-3-(1H-tetrazol-5-yl)phenyl] cyclobutane-carboxamide]
18.7 nM	7.76 nM	CCOc1ccc(-c2ccc(NC(=O)C3(c4ccc(OC(F)(F)F)cc4)CC3)cc2-c2nnn[nH]2)cn1 [Example 74, N-[4-(6-ethoxypyridin-3-yl)-3-(1H-tetrazol-5-yl)phenyl]-1-[4-(trifluoromethoxy)phenyl] cyclopropane-carboxamide]
24 nM	12 nM	CCOc1ccc(-c2ccc(NC(=O)C3(c4ccc(C)c(F)c4)CC3)cc2-c2nnn[nH]2)cn1 [Example 76, N-[4-(6-ethoxypyridin-3-yl)-3-(1H-tetrazol-5-yl)phenyl]-1-(3-fluoro-4-methylphenyl) cyclopropane-carboxamide]
41.8 nM	19 nM	CCOc1ccc(-c2ccc(NC(=O)C3(c4cc(F)cc(F)c4)CC3)cc2-c2nnn[nH]2)cn1 [Example 84, 1-(3,5-difluorophenyl)-N-[4-(6-ethoxypyridin-3-yl)-3-(1H-tetrazol-5-yl)phenyl] cyclopropane-carboxamide]
88 nM	60 nM	CCOc1ccc(-c2ccc(NC(=O)C3(c4ccc(F)c(OC)c4)CC3)cc2-c2nnn[nH]2)cn1 [Example 87, N-[4-(6-ethoxypyridin-3-yl)-3-(1H-tetrazol-5-yl)phenyl]-1-(4-fluoro-3-methoxyphenyl) cyclopropane-carboxamide]
37.1 nM	39.3 nM	CCOc1ccc(-c2ccc(NC(=O)C3(c4ccccc4Cl)CC3)cc2-c2nnn[nH]2)cn1 [Example 93, 1-(2-chlorophenyl)-N-[4-(6-ethoxypyridin-3-yl)-3-(1H-tetrazol-5-yl)phenyl] cyclopropane-carboxamide]
14.5 nM	10.4 nM	CCOc1ccc(-c2ccc(NC(=O)C3(c4cccc(CC)c4)CC3)cc2-c2nnn[nH]2)cn1 [Example 95, N-[4-(6-ethoxypyridin-3-yl)-3-(1H-tetrazol-5-yl)phenyl]-1-(3-ethylphenyl) cyclopropane-carboxamide]
28.1 nM	–	CCOc1ccc(-c2ccc(NC(=O)C3(c4cc(F)cc(OC)c4)CC3)cc2-c2nnn[nH]2)cn1 [Example 103, N-[4-(6-ethoxypyridin-3-yl)-3-(1H-tetrazol-5-yl)phenyl]-1-(3-fluoro-5-methoxyphenyl) cyclopropane-carboxamide]
46.4 nM	–	CCOc1ccc(-c2ccc(NC(=O)C3(c4cc(OC)ccc4F)CC3)cc2-c2nnn[nH]2)cn1 [Example 104, N-[4-(6-ethoxypyridin-3-yl)-3-(1H-tetrazol-5-yl)phenyl]-1-(2-fluoro-5-methoxyphenyl) cyclopropane-carboxamide]
338 nM	–	CCOc1ccc(-c2ccc(NC(=O)C3(c4ccc(Cl)nc4)CC3)cc2-c2nnn[nH]2)cn1 [Example 108, 1-(6-chloropyridin-3-yl)-N-[4-(6-ethoxypyridin-3-yl)-3-(1H-tetrazol-5-yl)phenyl] cyclopropane-carboxamide]
